Measurements taken from patent US20250302869A1, “USE OF INHALED NITRIC OXIDE (INO) FOR TREATING PATIENTS WITH PULMONARY HY[…] SARCOIDOSIS (PH-SARC)” (Mallinckrodt Pharmaceuticals Ireland Limited, priority 2022, published 2025).

How the values were obtained:
[1] = test system: patients with pulmonary hypertension associated with sarcoidosis (PH-SARC); assay: Acute iNO dose escalation study, right heart catheterization hemodynamics (Phase 2, Part 1); format: in vivo, human; details: for PVR change from baseline: pulsed, 10 min, baseline median 329.4; for PVR change from baseline / CO percent change from baseline / PCWP percent change from baseline / PVR percent change from baseline / mPAP percent change from baseline / CO change from baseline / PCWP change from baseline / mPAP change from baseline: median (IQR); for CO change from baseline: baseline median 5.9; for PCWP change from baseline: baseline median 13.5; for mPAP change from baseline: baseline median 37.2
Description: Patients with sarcoidosis may develop pulmonary hypertension (PH) which is associated with an impaired quality of life and limitations on activities of daily living. The Phase 2 trial, was designed to determine the safety and clinical efficacy of pulsed iNO, a potent and well-established vasodilator, on sarcoidosis-associated with PH patients, as well as to evaluate the safe and effective dose of iNO in subjects on long term oxygen therapy (LTOT) with possible or definite pulmonary hypertension associated with sarcoidosis.
Sarcoidosis patients with PH on prior right heart catherization (RHC) or on echocardiography were enrolled in a two-part open label study. Patients underwent RHC, to establish baseline hemodynamics including mean pulmonary arterial pressure (mPAP), cardiac output (CO), pulmonary wedge pressure (PCWP) with derivation of pulmonary vascular resistance (PVR).
(§1) Patients were administered acute escalating doses of pulsatile iNO via an INOpulse device starting at 30 mcg/kg ideal body weight/hr (iNO30) and increasing up to 125 mcg/kg ideal body weight/hr (iNO125) to assess the impact of each dose level on hemodynamic parameters. Patients were treated with iNO for 10 minutes per dose with a 10-minute washout between doses.
Each dose level was followed by a washout period. All hemodynamic wave forms were reviewed by a blinded hemodynamic core lab for determination of end-exhalation PAP and PCWP. After the acute vasodilator study, subjects were eligible to participate in a long-term open label extension study at the dose of iNO found to be most beneficial by the RHC measurements, as determined by the investigator.
(§2) During the Treatment Visit of Part 1 of the study, subjects were admitted to the cardiac catheterization suite/ICU/CCU and a Swan Ganz Catheter was inserted, and subjects were monitored during acute exposure to iNO at 30, 45, 75, 125 mcg/kg IBW/hr. Hemodynamic changes were monitored during this part of the study. The primary endpoint for Part 1 of the study was to assess the change in mean pulmonary artery pressure (mPAP), pulmonary capillary wedge pressure (PCWP), cardiac output (CO) and pulmonary vascular resistance (PVR) on iNO 30, 45, 75, 125 mcg/kg IBW/hr compared to baseline. The Safety Endpoint includes incidence and severity of treatment emergent adverse events (AEs), including those related to device deficiency, symptoms that may be due to rebound associated with acute withdrawal of iNO: systemic arterial oxygen desaturation, hypoxemia, bradycardia, tachycardia, systemic hypotension, shortness of breath, near-syncope, and syncope, and change in oxygen saturation and vital signs.
The changes in hemodynamics were determined for absolute change (as shown in FIGS. 2A-2D) and percent change (as shown in FIGS. 2E-2H) from baseline in PVR, mPAP, CO and PCWP. The analysis depicted illustrates the change from baseline (box & whisker plot provides median, IQR, and min/max). Statistical analysis based on Wilcoxon […] was assessed between baseline and each dose as well as each dose and each prior dose and no correction was conducted for multiplicity.

[2] = test system: patients with pulmonary hypertension associated with sarcoidosis (PH-SARC); assay: Safety and tolerability in the acute iNO dose escalation study; format: in vivo, human
Protocol: as §1, §2

[N]=O [iNO, nitric oxide]
median mPAP reduction from baseline across the doses ([1]; across the doses of iNO30 to iNO125, baseline median mPAP 37.2 mmHg): 6-10%
patients demonstrating decreases in mPAP and PVR ([1]; across the doses of iNO from iNO30 to iNO125, blinded core lab, 8 patients): all 8 patients demonstrated decreases in mPAP and PVR
PCWP across all doses ([1]; all doses iNO30 to iNO125): remained stable
cardiac output (CO) across all doses ([1]; all doses iNO30 to iNO125): remained stable
PVR change from baseline ([1]; iNO30 (30 mcg/kg IBW/hr)): −19.2 (39.0) dyne*sec*cm-5
CO percent change from baseline ([1]; iNO30 (30 mcg/kg IBW/hr)): −2.5% (11.2)
PCWP percent change from baseline ([1]; iNO30 (30 mcg/kg IBW/hr)): −4.1% (29.1%)
PVR percent change from baseline ([1]; iNO30 (30 mcg/kg IBW/hr)): −7.0% (10.6%)
mPAP percent change from baseline ([1]; iNO30 (30 mcg/kg IBW/hr)): −7.1% (10.0%)
CO change from baseline ([1]; iNO30 (30 mcg/kg IBW/hr)): −0.1 (0.6) L/min
PCWP change from baseline ([1]; iNO30 (30 mcg/kg IBW/hr)): −1.0 (4.3) mmHg
mPAP change from baseline ([1]; iNO30 (30 mcg/kg IBW/hr)): −2.7 (2.8) mmHg
PVR change from baseline ([1]; iNO45 (45 mcg/kg IBW/hr)): −48.4 (84.6) dyne*sec*cm-5
CO percent change from baseline ([1]; iNO45 (45 mcg/kg IBW/hr)): 1.0% (6.5%)
PCWP percent change from baseline ([1]; iNO45 (45 mcg/kg IBW/hr)): 0.0% (20.5%)
mPAP percent change from baseline ([1]; iNO45 (45 mcg/kg IBW/hr)): −10.6% (15.8%)
CO change from baseline ([1]; iNO45 (45 mcg/kg IBW/hr)): 0.0 (0.3) L/min
PCWP change from baseline ([1]; iNO45 (45 mcg/kg IBW/hr)): 0.0 (2.5) mmHg
mPAP change from baseline ([1]; iNO45 (45 mcg/kg IBW/hr)): −4.0 (5.2) mmHg
median decrease of PVR from baseline ([1]; iNO45 dose, range −54% to +22%, baseline median PVR 329 dyne*sec*cm-5): 20%
PVR change from baseline ([1]; iNO75 (75 mcg/kg IBW/hr)): −68.0 (92.7) dyne*sec*cm-5
CO percent change from baseline ([1]; iNO75 (75 mcg/kg IBW/hr)): 0.1% (6.1%)
PCWP percent change from baseline ([1]; iNO75 (75 mcg/kg IBW/hr)): 10.6% (29.5%)
PVR percent change from baseline ([1]; iNO75 (75 mcg/kg IBW/hr)): −15.3% (37.7%)
mPAP percent change from baseline ([1]; iNO75 (75 mcg/kg IBW/hr)): −6.3% (13.2%)
CO change from baseline ([1]; iNO75 (75 mcg/kg IBW/hr)): 0.0 (0.4) L/min
PCWP change from baseline ([1]; iNO75 (75 mcg/kg IBW/hr)): 1.5 (4.3) mmHg
mPAP change from baseline ([1]; iNO75 (75 mcg/kg IBW/hr)): −2.3 (3.9) mmHg
PVR change from baseline ([1]; iNO125 (125 mcg/kg IBW/hr)): −85.8 (67.1) dyne*sec*cm-5
CO percent change from baseline ([1]; iNO125 (125 mcg/kg IBW/hr)): 4.2% (14.6%)
PCWP percent change from baseline ([1]; iNO125 (125 mcg/kg IBW/hr)): 0.0% (30.7%)
PVR percent change from baseline ([1]; iNO125 (125 mcg/kg IBW/hr)): −28.7% (20.8%)
mPAP percent change from baseline ([1]; iNO125 (125 mcg/kg IBW/hr)): −6.4% (11.0%)
CO change from baseline ([1]; iNO125 (125 mcg/kg IBW/hr)): 0.2 (0.8) L/min
PCWP change from baseline ([1]; iNO125 (125 mcg/kg IBW/hr)): 0.0 (4.0) mmHg
mPAP change from baseline ([1]; iNO125 (125 mcg/kg IBW/hr)): −3.0 (3.5) mmHg
median decrease of PVR from baseline ([1]; iNO125 dose, range −43% to −5%, p=0.02 vs. baseline and prior dose): 29%
tolerability ([2]; across all the doses iNO30 to iNO125): well-tolerated
adverse events or serious adverse events related to iNO ([2]; acute doses iNO30 to iNO125, 8 patients): No adverse events or serious adverse events related to iNO were reported
